{"source": "patent US6790824B1", "about": "“Cytokines having neurotrophic activity” (Biopharm Gesellschaft zur biotechnologischen Entwicklung …, priority 1997, dated 2004)", "assay_type_in_all_cases": "cell-based", "key": {"[1]": {"test_system": "chick ciliary ganglionic (CG) neurons", "test": "Survival of embryonic chick ciliary ganglionic (CG) neurons, 24 h, counting of surviving neurons", "conditions": "for relative potency of TGF-β isoforms in the synergism with GDNF: not shown; for CG neuron survival with further addition of TGF-β: TGF-β 2.5 ng/ml, CNTF non-saturating, OSM, LIF, IL-6 at 10 ng/ml; for support of CG neuron survival by the single cytokine: at 10 ng/ml, without TGF-β", "description": "(§1) Embryonic chick ciliary (CG), dorsal root (DRG), and sympathetic (SG) ganglia at embryonic day(s) (E) 8, 10, and 12, were dissected, freed from nerve roots and connective tissue and collected in CME. Ganglia were incubated in trypsin (ICN), washed and dissociated by trituration using fire-polished Pasteur pipettes. Cultures were set up in 96-well microtiter plates (Costar, A/2), precoated with poly-L-ornithine and laminin at a density of 1,200-1,500 cells/well in DMEM supplemented with N1 additives, 0.25% BSA, and 0.1% PSN (DME/N1) and incubated at 37° C. in a 5% CO2 incubator.\n(§2) At appropriate times (CG: 24 h, DRG: 48 h, SG: 72 h) cultures were fixed by addition of 2.5% glutardialdehyde in phosphate buffered saline (PBS). Numbers of surviving neurons were determined by direct counting of 30% of the surface area using phase contrast microscopy.\nPhosphatidylinositol-specific phospholipase C (PIPLC) is an enzyme that specifically cleaves glycosyl-phosphatidylinositol (GPI) linkages. Embryonic chick ciliary ganglionic neurons (E8) were isolated and seeded as described before. Neurons were incubated for 1 h at 37° C. with 1) 100 mU PIPLC or II) 100 mU PIPLC+2 ng/ml TGFβ or III) without enzyme and then growth factors were added. The number of surviving neurons was determined 24 h later."}, "[2]": {"test_system": "chick sympathetic ganglionic (SG) neurons", "test": "Survival of embryonic chick sympathetic ganglionic (SG) neurons, 72 h, counting of surviving neurons", "conditions": "E8, serum-free, factor added by itself", "description": "as §1, §2"}, "[3]": {"test_system": "embryonic chicken dorsal root ganglia (DRG) neurons", "test": "Survival of dissociated embryonic chick dorsal root ganglia (DRG) neurons, 48 h, counting of surviving neurons", "conditions": "for effect on DRG neuron survival when added together with GDF-5: factor at saturating concentration plus GDF-5 20 ng/ml, E8, 48 h", "description": "Dissociated cultures of embryonic chicken dorsal root ganglia (DRG) were generated as described in details by Krieglstein and Unsicker (Neurochem. Res., 21(7) (1996) 843-850). Briefly, DRGs from white Leghorn chick embryos (day 8) were dissected in Ca^2+-Mg^2+ free Hanks' balanced salt solution. After incubation in 0.08% trypsin for 15 min ganglia were dissociated by trituration. Cells were seeded in polyomithin-laminin coated 96-well microtiter plates (A/2 Costar) at a density of 1,200 cells/well. Growth factors were applied at the time of plating in a final volume of […] Dulbecco's Modified Eagle's Medium supplemented with 0.25% bovine serum albumin, N1 additives and 100 U/ml penicillin. As a positive control, nerve growth factor (NGF) was used at the saturating concentration of 5 ng/ml. After 48 h of incubation at 37° C. in a humidified atmosphere containing 5% CO2, cultures were fixed with 2.5% glutaraldehyde. Neuronal cells were identified by their phase-bright and neurite-bearing morphologies and counted within 30% of the total surface area using phase contrast microscopy. In the first set of experiments we tested the survival promoting effect of several growth factors of the bone morphogenetic protein family.\nas §1, §2\nDissociated cultures of embryonic chicken dorsal root ganglia (DRGs) were generated as described in details by Krieglstein and Unsicker (Dev. Brain. Rees. 93 (1996) 10-17). Briefly, DRGs were dissected in Ca^2+-Mg^2+ free Hank's balanced salt solution (CMF). After incubation in 0.08% trypsin (BioWhittaker) for 15 min, ganglia were dissociated by gentle trituration using fire-polished Pasteur pipettes. Cells in suspension (neuron/non-neuron ratio 1:2) were seeded in polyomithin-laminin coated 96-well microtiter plates (A/2 Costar) at a density of 1,200 cells/well. Growth factors were applied at the time of plating in a final volume of 50 μl Dulbecco's Modified Eagle's Medium supplemented with 0.25% bovine serum albumin, N1 additives (Bottenstein et al., Exp. Cell Res. 125 (1980) 183-190) and 100 U/ml penicillin. As a positive control, nerve growth factor (NGF) was used at the saturating concentration of 10 ng/ml. After 48 h of incubation at 37° C. in a humidified atmosphere containing 5% CO2, cultures were fixed with 2.5% glutaraldehyde in phosphate buffered saline (PBS). Neuronal cells were identified by their phase-bright and neurite-bearing morphologies and counted within 30% of the total surface area using phase contrast microscopy. All experiments were performed in at least triplicate in two independent experiments. Data are presented as mean±SEM. Statistical comparisons were made with student's double t-test, ANOVA and MicrocalOrigin software. Differences were considered statistically significant at *P<0.05, **P<0.01, **P<0.001."}, "[4]": {"test_system": "dopaminergic neurons in the ventral midbrain (mesencephalic cultures E14/DIV8)", "test": "Survival of TH-immunoreactive neurons in mesencephalic cultures (E14/DIV8) treated with FGF-2", "conditions": "FGF-2 10 ng/ml, 8 days in culture", "description": "FIG. 12 depicts the ffect of neutralizing endogenous TGF-β in mesencephalic neuron cul-tures. Numbers of surviving TH-immunoreactive neurons of mesencephalic cultures (E14/DIV8) after 8 days in culture treated with FGF-2 (10 ng/ml), medium only (control), in presence or absence of neutralizing antibodies to TGF-β1/-β2/-β3 (10 μg/ml). Data are given as mean±SEM (n=3), P-values are ***P<0.001 for increased survival as compared with control cultures and +P<0.05 or +++P<0.001 for decreased survival following antibody treatment.\nFibroblast growth factor (FGF)-2 is known to act as a neurotrophic factor for dopaminergic neurons in the ventral midbrain. […] As TGF-β is known to be a product of astroglial cells, it was tested whether TGF-β-neutralizing antibodies can abolish the neurotrophic effect of FGF-2 on cultured neurons derived from the embryonic midbrain floor."}, "[5]": {"test_system": "rat embryonic mesencephalic dopaminergic neurons (E14)", "test": "Survival of rat embryonic mesencephalic dopaminergic neurons, count of tyrosine hydroxylase (TH) immunoreactive neurons after 8 days", "conditions": "GDNF 10 ng/ml, TGF-β3 2 ng/ml, 8 days in culture", "description": "FIG. 8 depicts the survival promoting effect of GDNF on rat embryonic mesencephalic dopaminergic neurons (E14) is dependent on the presence of TGF-β. Dissociated cultures were treated with GDNF (10 ng/ml), with GDNF in the presence of anti-TGF-β1, -β2, -β3 (10 μg/ml), with TGF-β3 (2 ng/ml) or without any growth factor added (control) for 8 days in culture. Numbers of dopaminergic neurons were determined by counting the numbers of tyrosine hydroxylase (TH) immunoreactive neurons."}, "[6]": {"conditions": "PIPLC 0.1 U/ml prior to plating"}}}
{"substance": "Phosphatidylinositol-specific phospholipase C [PIPLC, reference compound]", "values": [{"measurement": "effect of PIPLC pretreatment on the survival promoting effect of CNTF", "setting": "[1]; [6]", "result": "effectively reduced the survival promoting effect of CNTF"}, {"measurement": "effect of PIPLC pretreatment on the survival promoting effect of FGF-2", "setting": "[1]; [6]", "result": "without affecting the survival promoting effect of FGF-2"}, {"measurement": "effect of PIPLC pretreatment on the survival promoting effect of GDNF with TGF-β", "setting": "[1]; [6]", "result": "significantly reduced the survival promoting effect of GDNF in its combination with TGF-β"}, {"measurement": "effect of PIPLC pretreatment in the presence of TGF-β on the survival promoting effect of GDNF", "setting": "[1]; PIPLC pretreatment with 2 ng/ml TGF-β1", "result": "the survival promoting effect of GDNF was maintained"}]}
{"substance": "TGF-β1: isoform of TGF-β", "values": [{"measurement": "SG neuron survival, single factor in serum-free medium", "setting": "[2]", "result": "virtually no survival promoting effect"}, {"measurement": "relative potency of TGF-β isoforms in the synergism with GDNF", "setting": "[1]", "result": "equipotent"}, {"measurement": "DRG neuron survival, single factor in serum-free medium", "setting": "[3]; E8, serum-free, factor added by itself", "result": "virtually no survival promoting effect"}, {"measurement": "effect on DRG neuron survival when added together with GDF-5", "setting": "[3]", "result": "synergistic or additive effects"}]}
{"substance": "TGF-β2: isoform of TGF-β", "values": [{"measurement": "relative potency of TGF-β isoforms in the synergism with GDNF", "setting": "[1]", "result": "equipotent"}]}
{"substance": "TGF-β3: isoform of TGF-β", "values": [{"measurement": "relative potency of TGF-β isoforms in the synergism with GDNF", "setting": "[1]", "result": "equipotent"}, {"measurement": "effect on DRG neuron survival when added together with GDF-5", "setting": "[3]", "result": "synergistic or additive effects"}]}
{"substance": "epidermal growth factor [EGF]", "values": [{"measurement": "effect on DRG neuron survival when added together with GDF-5", "setting": "[3]", "result": "synergistic or additive effects"}]}
{"substance": "fibroblast growth factor-2 [FGF-2]", "values": [{"measurement": "increase in survival of the cells compared to the negative control (medium alone)", "setting": "[4]", "result": 1.7, "unit": "fold"}, {"measurement": "effect on DRG neuron survival when added together with GDF-5", "setting": "[3]", "result": "synergistic or additive effects"}]}
{"substance": "interleukin-6 [IL-6]", "values": [{"measurement": "CG neuron survival with further addition of TGF-β", "setting": "[1]", "result": "did not increase the effects of these cytokines beyond background levels"}, {"measurement": "support of CG neuron survival by the single cytokine", "setting": "[1]", "result": "did not support CG neurons"}]}
{"substance": "leukemia inhibiting factor [LIF]", "values": [{"measurement": "CG neuron survival with further addition of TGF-β", "setting": "[1]", "result": "did not increase the effects of these cytokines beyond background levels"}, {"measurement": "support of CG neuron survival by the single cytokine", "setting": "[1]", "result": "did not support CG neurons"}]}
{"substance": "transforming growth factor beta [TGF-β]", "values": [{"measurement": "survival of dopaminergic neurons relative to untreated control cultures", "setting": "[5]", "result": 200, "unit": "%"}, {"measurement": "EC50 of the synergistic survival effect", "setting": "[1]; factor titrated in combination with 2 ng/ml of the other factor (GDNF/TGF-β), serum-free", "result": 0.06, "unit": "ng/mL"}, {"measurement": "CG neuron survival, single factor in fully-defined medium", "setting": "[1]; serum-free, each at the saturating amount of 2 ng/ml", "result": "only marginal survival promoting effects"}]}
{"substance": "transforming growth factor-a [TGF-α]", "values": [{"measurement": "effect on DRG neuron survival when added together with GDF-5", "setting": "[3]", "result": "synergistic or additive effects"}]}
